The NIST ThermoML archive (doi:10.1016/j.fluid.2014.07.041)
Numbers after ± are expanded uncertainties.

Assays:
[1] = 298.15 K; 101.33 kPa; Liquid; Vibrating tube method
[2] = Boiling temperature at pressure P; details: 101.33 kPa; Liquid; Ebulliometric method (Recirculating still)

| mass density [1] [kg/m3] | Boiling temperature at pressure P [2] [°C] | SMILES |
| --- | --- | --- |
| 965.31 ± 2 | 124.52 ± 0.1 | COCCO [2-methoxyethan-1-ol] |
| 766.29 ± 2 | 100.73 ± 0.1 | CC1CCCCC1 [methylcyclohexane] |
| 928.73 ± 2 | 135.47 ± 0.1 | CCOCCO [2-ethoxyethan-1-ol] |
